# How the values were obtained:
# [1] = system: Lewis lung-OVA tumors; assay: PEP005-mediated cure of primary Lewis lung-OVA tumors, challenge with secondary Lewis lung-OVA; assay type: in vivo, C57BL/6 mice
# Description: FIGS. 4A to D are graphical representations showing protection against secondary tumors following cure of primary tumors with PEP005. (A) C57BL/6 mice received 5×10^5 Lewis lung-OVA s.c. on the back on day less 7 (d−7). When these primary tumors had reached an average 13.6 mm^2±1.8 SE (range 10-25 mm^2) on d0 they were treated once with 16 μg of PEP005 delivered i.t. In eight mice these primary tumors were cured, and these mice received 5×10^5 Lewis lung-OVA s.c. on d4 on the opposite flank from the primary tumors. The emergence of these secondary tumors was monitored over time (PEP005 cured). In a parallel group of animals (n=5) PEP005 treatment regressed the primary tumors, but after 11-13 days the primary tumors re-emerged. These animals also received secondary tumors as above and their emergence was again monitored over time (PEP005 regressed). Two control groups were included. One group (n=6) received no primary tumors, but was treated s.c. with PEP005 and received secondary tumors on the opposite flank (white triangles, PEP005 s.c.). The second control group (n=8) also received no primary tumors, was not treated with PEP005, and received secondary tumors as above (Controls). […] The experiment in (A) was repeated in Foxnl^nu mice; PEP005 cured (n=4), PEP005 regressed (n=7), Control (n=7). A PEP005 s.c. group was not included. (C) Treatment of primary Lewis lung-OVA with PEP005 induced SIINFEKL-specific CD8^+ T-cell responses using IFNγ ELISPOT when the secondary tumors had emerged or on d50. (D) Reduced growth of B16-OVA lung metastases following successful treatment of s.c. B16-OVA tumors with PEP005. C57BL/6 mice received 5×10^5 B16-OVA s.c. on the back on d−6. When these primary tumors had reached 10-20 mm^2 on d0, they were treated once with 18 μg of PEP005 delivered i.t., which cured the tumors in eight mice (PEP005 cured) and regressed the tumors in five mice (PEP005 regressed). Controls as above. Secondary B16-OVA (10^5) were injected i.v. on d6 and animals were sacrificed on d27 and lung metastases counted.
# B16 and B16 cells stably expressing ovalbumin (B16-OVA)were grown s.c. in C57BL/6 mice as described previously (Ogbourne et al, Cancer Res 64:2833-2839, 2004; Anraku et al, J Virol 76:3791-3799, 2002). Lung metastases were established as described (Zeh et al, J Immunol 162:989-994, 1999). Lewis lung-OVA (Nelson et al, J Immunol 166:5557-5566, 2001) were grown s.c. in C57BL/6 as described (Lenarczyk et al, Vaccine 22:963-974, 2004).
# Tumors were treated by topical or intratumoral (i.t.) injection (using a 26 gauge needle) of (i) PEP0005 dissolved in acetone and then RPMI 1640 (final concentration of acetone 4%), or (ii) PEP005 formulated in PEG400. […]
# [2] = system: CT26 colon carcinoma cells; assay: PEP005-mediated cure of primaries plus peptide vaccine, CT26 colon carcinoma model; assay type: in vivo, Balb/c mice; conditions: Log rank p=0.011 (PEP005) and =0.013 (Vaccine)
# Description: FIG. 14 is a graphical representation combining PEP005-mediated cure of primaries and cancer vaccination in the CT26 colon carcinoma model. (A) on d−3 […] mice were inoculated with 10^5 CT26 cells on the left flank (primary tumor) and 5×10^3 CT26 cells on the right flank (secondary tumor). On dO the primary CT26 tumors, which has reached 16.8+SD 3.2 mm^2 were cured with i.t. injections of 25 μg of PEP005 formulated in PEG400. On d3 and d10 mice received peptide vaccine containing the SPSYVYHQF [SEQ ID NO:5] epitope (n=9, PEP005+Vaccine). […] A third group was inoculated with secondary tumors only and received the vaccine (n=11, Vaccine), and the control group was given only secondary tumors and received no treatment (n=12, Controls). Animals were culled when the secondary tumors reached 100 mm^2.
# CT26 colon carcinoma cells [CRL-2638] (Ali et al, 2002 supra) were grown s.c. in 6-10 week old female Balb/c mice.
# The cancer vaccine comprised the gp70 A-1 peptide epitope SPSYVYHQF [SEQ ID NO:5] […]
# To determine whether the effects seen in the B16 models could be repeated in a different tumor model and using a different cancer vaccine, four groups of Balb/c mice were established using the CT26 colon carcinoma model (Ali et al, J Immunol 168:3512-3519, 2002). […] The growth of secondary tumors was monitored as above.
compound,measurement,setting,value
"C/C=C(/C)C(=O)O[C@H]1C(C)=C[C@]23C(=O)[C@@H](C=C(CO)[C@@H](O)[C@]12O)[C@H]1[C@@H](C[C@H]3C)C1(C)C [PEP005, ingenol-3-angelate]",growth of secondary tumors,"[1]; PEP005 regressed but failed to cure the primary tumors (n=5), not significant",slightly delayed
same,growth of secondary tumors,"[1]; no primary tumors, PEP005 s.c. at a site distant from the secondary tumors",failed to reduce the growth of the secondary tumors
same,animals in which secondary tumors failed to appear,"[1]; primary tumor cured by i.t. PEP005 (n=8), secondary inoculated d4 on opposite flank",50%
same,emergence of secondary tumors,"[1]; primary tumor cured by i.t. PEP005 (n=8), log rank p=0.002",significantly delayed
same,growth of secondaries vs no treatment controls,[2],significantly reduced the growth of secondaries
